The structures appear in SMILES notation.

The nature of series [1]: Antiproliferative activity against human […] cells after 48 hrs by CCK-8 assay. The class given is functional, cell-based. On the technique in general: Tetrazolium dyes change colour on reduction, which living cells bring about.
A further series relates to MCF7. The series can be described thus: Antiproliferative activity against human MCF7 cells after 48 hrs by CCK-8 assay. To be noted: MCF7, 48 h. The class given is functional, cell-based.
The next series deals with A549. The series can be described thus: Antiproliferative activity against human A549 cells after 48 hrs by CCK-8 assay. The class given is functional, cell-based. To be noted: A549, 48 h.
Series [2] can be described thus: Toxicity in rat. The series is classed as organism-based. The conditions noted are these: in vivo.

One may read the IC50 as the concentration needed to halve the response being measured. A low value points to greater potency in that assay. Regarding `O=c1c2ccccc2[se]n1-c1nnc(-c2ccccc2)s1`, the IC50 in series [1] was determined as 20.5 µM; with MCF7 it was 4.02 µM; in the series on A549, 2.48 µM.

As to `O=c1c2ccccc2[se]n1-c1nnc(-c2ccc(F)cc2)s1`, the figures for the IC50 (in series [1]; in the series with MCF7; in the series with A549) were 42.9 µM, 61.5 µM and 21.1 µM, respectively.

Regarding `O=c1c2ccccc2[se]n1-c1nnc(-c2ccccc2Cl)s1`, the IC50 in series [1] worked out at 40.2 µM; with MCF7, 4.43 µM; in the series on A549 it was 10.1 µM.

As for `O=c1c2ccccc2[se]n1-c1nnc(-c2ccc(Cl)cc2)s1`, the IC50 in series [1] was determined as 24.4 µM; in the series on MCF7, 19.4 µM; in the series on A549, 10.4 µM.

Take `O=c1c2ccccc2[se]n1-c1nnc(-c2ccccc2Br)s1`: the results for the IC50 (in series [1]; in the series on MCF7; in the series with A549) were 27.4 µM, 59.4 µM and 12.7 µM, respectively.

Take `O=c1c2ccccc2[se]n1-c1nnc(-c2ccc(Br)cc2)s1`: the IC50 in series [1] came out at 68.2 µM; in the series with MCF7, 43.3 µM; with A549, 39.1 µM.

As to `Cc1ccccc1-c1nnc(-n2[se]c3ccccc3c2=O)s1`, the half-maximal inhibitory concentration (IC50) in series [1] turned out to be 19.4 µM; in the series with MCF7, 36.8 µM; in the series with A549, 18.6 µM.

As for `Cc1cccc(-c2nnc(-n3[se]c4ccccc4c3=O)s2)c1`, the half-maximal inhibitory concentration (IC50) in series [1] was determined as 17.8 µM; with MCF7, 19.9 µM; in the series with A549 it was 14.8 µM.

Regarding `Cc1ccc(-c2nnc(-n3[se]c4ccccc4c3=O)s2)cc1`, the half-maximal inhibitory concentration (IC50) was found to be 16.6 µM in series [1], 18.7 µM with MCF7 and 13.4 µM in the series on A549.

As for `COc1ccccc1-c1nnc(-n2[se]c3ccccc3c2=O)s1`, the IC50 came to 14.3 µM in series [1], 3.92 µM with MCF7 and 3.12 µM in the series with A549.

On to `COc1ccc(-c2nnc(-n3[se]c4ccccc4c3=O)s2)cc1`, for which the IC50 came out at 16.4 µM in series [1], 10 µM in the series with MCF7 and 5.93 µM with A549.

As to `COc1cc(-c2nnc(-n3[se]c4ccccc4c3=O)s2)cc(OC)c1OC`, the IC50 in series [1] amounted to 7.15 µM; in the series on MCF7, 3.44 µM; with A549, 3.24 µM.

`O=c1c2ccccc2[se]n1-c1nnc(-c2ccccc2[N+](=O)[O-])s1`: the IC50 in series [1] stood at 22.5 µM; in the series on MCF7 it was 31.2 µM; in the series on A549, 11.4 µM.

For `O=c1c2ccccc2[se]n1-c1nnc(-c2cccc([N+](=O)[O-])c2)s1`, the IC50 in series [1] amounted to 27.3 µM; with MCF7, 29.2 µM; with A549 it was 16.1 µM.

As to `O=c1c2ccccc2[se]n1-c1nnc(-c2cc([N+](=O)[O-])cc([N+](=O)[O-])c2)s1`, the 50% inhibitory concentration (IC50) was 21.6 µM in series [1], 37.8 µM in the series on MCF7 and 17.9 µM in the series on A549.

The term LD50 denotes the dose at which mortality reaches 50%. Take `O=c1c2ccccc2[se]n1-c1ccccc1` [EBSELEN]: the results for the concentration for half-maximal inhibition (IC50) (in series [1]; with MCF7; in the series on A549) were 18.3 µM, 15 µM and 3.75 µM, respectively. Also, the 50% lethal dose (LD50) in series [2] worked out at 6180 mg/kg.

The values are drawn from ChEMBL document CHEMBL2021772, “Synthesis and antitumor-evaluation of 1,3,4-thiadiazole-containing benzisoselenazolone derivatives” (Bioorg Med Chem Lett, 2012).
